Laboratory results published in ChEMBL document CHEMBL1139500, “The next generation of phosphodiesterase inhibitors: structural clues to ligand and substrate selectivity of phosphodiesterases” (J Med Chem, 2005).
Each block holds one compound with its values, some of them ahead of it.

What was measured:
Phosphodiesterase 7 [1] = target: T1, Phosphodiesterase 7 (Homo sapiens, UniProt Q13946+Q9NP56); assay: (§1) Inhibition of human phosphodiesterase 7; format: protein assay
Phosphodiesterase 7 [2] = target: T1, Phosphodiesterase 7; assay: as §1; format: protein assay; remark: listed apart in the source
[3] = Inhibitory activity against phosphodiesterase 8
Phosphodiesterase 6 = assay: Inhibition of human phosphodiesterase 6; format: protein assay
[4] = target: cGMP-dependent 3',5'-cyclic phosphodiesterase (Homo sapiens, UniProt O00408); assay: Inhibition of human phosphodiesterase 2
Phosphodiesterase 1 = Phosphodiesterase 1 (Homo sapiens, UniProt P54750+Q01064+Q14123); assay: Inhibition of human phosphodiesterase 1; format: protein assay
[5] = target: High affinity cGMP-specific 3',5'-cyclic phosphodiesterase 9A (Homo sapiens, UniProt O76083); assay: Inhibition of human phosphodiesterase 9
[6] = target: cAMP and cAMP-inhibited cGMP 3',5'-cyclic phosphodiesterase 10A (Homo sapiens, UniProt Q9Y233); assay: Inhibitory concentration value against phosphodiesterase 10
Sequence of cAMP and cAMP-inhibited cGMP 3',5'-cyclic phosphodiesterase 10A (Q9Y233 whole entry): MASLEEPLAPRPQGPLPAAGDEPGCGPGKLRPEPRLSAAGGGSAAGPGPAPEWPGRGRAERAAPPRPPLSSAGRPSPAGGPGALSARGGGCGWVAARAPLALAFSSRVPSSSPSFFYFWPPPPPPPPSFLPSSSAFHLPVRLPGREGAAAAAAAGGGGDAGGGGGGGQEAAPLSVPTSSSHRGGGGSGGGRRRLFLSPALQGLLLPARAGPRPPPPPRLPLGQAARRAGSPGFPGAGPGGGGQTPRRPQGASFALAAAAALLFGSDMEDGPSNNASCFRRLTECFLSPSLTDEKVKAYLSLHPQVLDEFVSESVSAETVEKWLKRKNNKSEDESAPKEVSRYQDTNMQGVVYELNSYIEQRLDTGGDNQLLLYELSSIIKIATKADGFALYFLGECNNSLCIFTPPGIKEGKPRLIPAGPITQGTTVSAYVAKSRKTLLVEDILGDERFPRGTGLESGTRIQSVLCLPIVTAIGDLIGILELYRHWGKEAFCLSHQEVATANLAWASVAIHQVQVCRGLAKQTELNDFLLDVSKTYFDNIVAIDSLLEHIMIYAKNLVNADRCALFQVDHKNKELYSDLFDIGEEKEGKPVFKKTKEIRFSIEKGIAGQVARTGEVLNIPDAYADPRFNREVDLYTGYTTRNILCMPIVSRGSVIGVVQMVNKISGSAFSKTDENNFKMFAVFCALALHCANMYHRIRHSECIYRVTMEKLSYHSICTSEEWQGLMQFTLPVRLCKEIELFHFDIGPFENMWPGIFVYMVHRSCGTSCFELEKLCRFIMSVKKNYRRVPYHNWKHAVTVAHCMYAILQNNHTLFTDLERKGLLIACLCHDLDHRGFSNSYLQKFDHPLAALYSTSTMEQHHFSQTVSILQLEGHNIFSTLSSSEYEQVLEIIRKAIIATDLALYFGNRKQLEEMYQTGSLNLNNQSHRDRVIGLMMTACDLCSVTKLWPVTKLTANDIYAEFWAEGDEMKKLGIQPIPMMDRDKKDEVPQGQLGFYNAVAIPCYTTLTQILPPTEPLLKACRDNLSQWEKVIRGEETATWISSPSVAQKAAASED

T1 sequence (Q13946 whole entry, looked up): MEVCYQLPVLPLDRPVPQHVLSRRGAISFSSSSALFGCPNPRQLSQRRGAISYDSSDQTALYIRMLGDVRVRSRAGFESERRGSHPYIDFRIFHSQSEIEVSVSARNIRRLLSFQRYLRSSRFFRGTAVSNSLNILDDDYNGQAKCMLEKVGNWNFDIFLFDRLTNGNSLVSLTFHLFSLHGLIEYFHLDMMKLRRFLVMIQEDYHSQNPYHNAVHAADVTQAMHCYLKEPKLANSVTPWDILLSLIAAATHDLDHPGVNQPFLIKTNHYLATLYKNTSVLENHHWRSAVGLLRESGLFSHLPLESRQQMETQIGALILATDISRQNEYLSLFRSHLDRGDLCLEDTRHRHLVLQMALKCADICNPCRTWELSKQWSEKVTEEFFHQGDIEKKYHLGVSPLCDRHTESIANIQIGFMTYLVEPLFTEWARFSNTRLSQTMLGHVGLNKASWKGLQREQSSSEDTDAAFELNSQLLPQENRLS
T1 sequence (Q9NP56 whole entry, looked up): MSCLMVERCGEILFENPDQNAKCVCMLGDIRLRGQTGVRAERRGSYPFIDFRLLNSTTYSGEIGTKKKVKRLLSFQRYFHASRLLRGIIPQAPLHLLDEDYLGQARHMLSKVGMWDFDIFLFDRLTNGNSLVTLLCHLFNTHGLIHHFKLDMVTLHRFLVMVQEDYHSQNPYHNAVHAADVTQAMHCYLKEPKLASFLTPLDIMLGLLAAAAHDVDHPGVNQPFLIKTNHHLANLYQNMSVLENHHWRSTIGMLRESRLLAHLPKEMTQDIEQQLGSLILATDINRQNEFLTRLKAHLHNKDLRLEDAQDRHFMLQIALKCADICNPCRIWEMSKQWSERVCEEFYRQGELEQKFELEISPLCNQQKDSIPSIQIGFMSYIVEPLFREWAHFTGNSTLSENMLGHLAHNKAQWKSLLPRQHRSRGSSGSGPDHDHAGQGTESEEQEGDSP
Sequence of High affinity cGMP-specific 3',5'-cyclic phosphodiesterase 9A (O76083 whole entry): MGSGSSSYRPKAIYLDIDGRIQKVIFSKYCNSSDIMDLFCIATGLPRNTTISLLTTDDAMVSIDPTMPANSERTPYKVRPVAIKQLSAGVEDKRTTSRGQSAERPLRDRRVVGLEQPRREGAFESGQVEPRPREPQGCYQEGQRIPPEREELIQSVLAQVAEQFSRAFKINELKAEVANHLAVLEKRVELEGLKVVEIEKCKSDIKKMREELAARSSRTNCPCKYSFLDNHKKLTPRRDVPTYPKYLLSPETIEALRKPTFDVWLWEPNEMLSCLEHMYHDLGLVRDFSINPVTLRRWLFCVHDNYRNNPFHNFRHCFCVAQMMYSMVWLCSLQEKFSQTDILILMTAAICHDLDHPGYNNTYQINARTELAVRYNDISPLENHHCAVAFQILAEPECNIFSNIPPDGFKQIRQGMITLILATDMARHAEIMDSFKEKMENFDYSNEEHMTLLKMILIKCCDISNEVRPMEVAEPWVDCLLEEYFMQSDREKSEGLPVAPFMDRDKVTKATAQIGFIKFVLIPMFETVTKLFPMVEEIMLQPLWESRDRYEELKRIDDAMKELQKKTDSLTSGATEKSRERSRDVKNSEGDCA
Sequence of cGMP-dependent 3',5'-cyclic phosphodiesterase (O00408 whole entry): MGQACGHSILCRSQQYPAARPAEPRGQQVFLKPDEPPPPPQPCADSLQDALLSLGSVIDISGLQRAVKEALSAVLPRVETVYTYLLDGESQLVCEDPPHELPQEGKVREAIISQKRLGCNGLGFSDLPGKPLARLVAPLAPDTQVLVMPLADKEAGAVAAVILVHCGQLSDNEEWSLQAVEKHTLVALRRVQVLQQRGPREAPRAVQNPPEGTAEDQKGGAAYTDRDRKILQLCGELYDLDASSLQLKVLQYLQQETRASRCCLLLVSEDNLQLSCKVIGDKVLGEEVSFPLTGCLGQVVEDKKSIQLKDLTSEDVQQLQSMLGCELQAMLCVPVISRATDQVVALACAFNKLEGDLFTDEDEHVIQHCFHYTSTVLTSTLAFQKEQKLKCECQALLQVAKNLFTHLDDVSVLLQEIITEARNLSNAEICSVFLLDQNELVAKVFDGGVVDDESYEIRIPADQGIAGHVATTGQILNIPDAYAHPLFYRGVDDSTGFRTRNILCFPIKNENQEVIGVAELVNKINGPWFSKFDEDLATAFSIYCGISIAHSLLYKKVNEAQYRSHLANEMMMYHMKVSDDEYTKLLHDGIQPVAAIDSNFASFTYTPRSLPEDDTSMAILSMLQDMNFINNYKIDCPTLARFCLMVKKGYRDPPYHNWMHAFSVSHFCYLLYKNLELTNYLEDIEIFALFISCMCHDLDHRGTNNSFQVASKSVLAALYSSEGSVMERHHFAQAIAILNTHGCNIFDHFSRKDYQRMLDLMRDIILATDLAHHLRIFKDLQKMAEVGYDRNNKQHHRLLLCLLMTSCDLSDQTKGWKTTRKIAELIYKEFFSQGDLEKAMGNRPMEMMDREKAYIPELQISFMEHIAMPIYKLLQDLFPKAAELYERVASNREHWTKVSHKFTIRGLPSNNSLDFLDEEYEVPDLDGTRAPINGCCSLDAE

SMILES: Cc1nc(N)c2ccc(-c3nn(C)/c(=N/C4CCCCC4)s3)cc2n1
Inhibition (Phosphodiesterase 7 [1]): 3.9 µM

SMILES: Cn1nc(-c2ccc(Cl)cc2)s/c1=N\C1CCCCC1
Inhibition (Phosphodiesterase 7 [1]): 1.5 µM

SMILES: OCCN(CCO)c1nc(N2CCCCC2)c2nc(N(CCO)CCO)nc(N3CCCCC3)c2n1 [DIPYRIDAMOLE]
Ki (Phosphodiesterase 7 [2]): 0.6 µM | Ki [3]: 9 µM | Ki (Phosphodiesterase 6): 0.125 µM

The remaining lines, values ahead:

Ki [4]: 1 µM
SMILES: CCCCCC[C@@H]([C@@H](C)O)n1cnc2c(N)ncnc21 [EHNA]

Ki (Phosphodiesterase 7 [2]): 4 µM
SMILES: CC(C)Cn1c(=O)n(C)c(=O)c2nc[nH]c21 [ISOBUTYLMETHYLXANTHINE]

Ki (Phosphodiesterase 1): 14 µM
SMILES: CCOC(=O)C1=C[C@]2(CC)CCCN3CCc4c(n1c1ccccc41)[C@@H]32 [VINPOCETINE]

Ki [5]: 35 µM | IC50 [6]: 22 µM | Ki (Phosphodiesterase 6): 0.4 µM
SMILES: CCCOc1ccccc1-c1nc2[nH]nnc2c(=O)[nH]1 [ZAPRINAST]
